Test results taken from patent US6727076B2 (priority 1995, dated 2004).
Values after ≈ are worked out from the molar mass of the structure shown. Where two headings read alike, the source gives them in different places.

Assays:
[1] = test system: E. coli strain 6321 (MG1655); type: cell-based; also: key: '+' indicates that the organism tested was capable of utilizing the carbon source listed; '−' indicates that the organism tested was not capable of utilizing the carbon source listed; 'w' indicates weak positive reactions
[2] = test system: E. coli strain 6320 (W3110); type: cell-based; also: key: '+' indicates that the organism tested was capable of utilizing the carbon source listed; '−' indicates that the organism tested was not capable of utilizing the carbon source listed; 'w' indicates weak positive reactions
[3] = test system: E. coli strain 13675 (O157); type: cell-based
[4] = test system: E. coli strain 13673 (O157); type: cell-based
[5] = test system: E. coli strain 14444 (MG1655 xylA); type: cell-based
E. coli MG1655 [6] = type: cell-based
[7] = test system: E. coli strain 14445 (MG1655 himA); type: cell-based
[8] = test system: E. coli strain 6322 (EMG2 (K12, λF+)); type: cell-based; also: key: '+' indicates that the organism tested was capable of utilizing the carbon source listed; '−' indicates that the organism tested was not capable of utilizing the carbon source listed; 'w' indicates weak positive reactions
[9] = test system: E. coli strain 13671 (O157:H? gur+); type: cell-based
[10] = test system: E. coli 287 (ATCC #11775); type: cell-based
[11] = test system: E. coli strain 14443 (MG1655 (FB426)); type: cell-based; also: key: '+' indicates that the organism tested was capable of utilizing the carbon source listed; '−' indicates that the organism tested was not capable of utilizing the carbon source listed; 'w' indicates weak positive reactions
[12] = test system: E. coli strain 11547 (O157:H7); type: cell-based
E. coli MG1655 [13] = type: cell-based; remark: listed apart in the source
[14] = test system: Staphylococcus aureus (ATCC #29213); experiment: microbe, parasite or virus in culture; type: cell-based
[15] = test system: Escherichia coli (ATCC#25922); experiment: microbe, parasite or virus in culture; type: cell-based
E. coli = type: cell-based
T. harzianum DAOM 190830 = type: cell-based, Trichoderma harzianum
S. typhimurium hisF645 = type: cell-based, Salmonella typhimurium
[16] = Staphylococcus aureus, ATCC29213, 18 h
[17] = Escherichia coli, ATCC25922, 18 h

Compound | carbon source utilization [1] | carbon source utilization [2] | carbon source utilization [3] | carbon source utilization [4] | carbon source utilization [5] | carbon source utilization [7] | carbon source utilization [8] | carbon source utilization [9] | carbon source utilization result [10] | carbon source utilization [11] | carbon source utilization [12] | suitability as nitrogen source (growth, purple color) (E. coli MG1655 [13]) | use as carbon source (E. coli) | carbon source utilization result (T. harzianum DAOM 190830) | other results
O=P(O)(O)OCC(O)CO (racemic) [D,L-α-glycerol phosphate] | + | − | + | + | − | − | + | + | positive | − | + |  |  |  | suitability as phosphorus source (growth, purple color) (E. coli MG1655 [6]): positive
NCCO [2-amino ethanol] | − | − | − | − | − | − | − | − | positive/negative | − | − | not suitable |  |  | 
CC1(C)S[C@@H]2[C@H](NC(=O)[C@H](N)c3ccccc3)C(=O)N2[C@H]1C(=O)O [Ampicillin, ampicillin] |  |  |  |  |  |  |  |  |  |  |  |  |  |  | MIC [14]: 1 to 2 µg/mL; MIC [14, 16]: 1 to 4 µg/mL (≈ 2.86 to 11.4 µM); MIC [15]: 2 to 4 µg/mL; MIC [15, 17]: 1 to 2 µg/mL (≈ 2.86 to 5.72 µM)
C[C@@H](N)C(=O)O [D-alanine] |  |  |  |  |  |  |  |  | positive |  |  | positive | can use |  | 
N[C@H](CC(=O)O)C(=O)O [D-aspartic acid] |  |  |  |  |  |  |  |  |  |  |  | not suitable | can use |  | 
O=C1O[C@@H]([C@H](O)CO)[C@H](O)[C@H]1O [D-galactonic acid-γ-lactone] | + | − | − | − | + | + | + | − | positive | + | − |  |  |  | carbon source utilization, in words [3]: negative; carbon source utilization, in words [4]: negative; carbon source utilization, in words [9]: negative; carbon source utilization, in words [12]: negative
N[C@@H](C(=O)O)[C@@H](O)[C@H](O)[C@H](O)CO [D-glucosaminic acid] | − | − | − | − | − | − | − | − | negative | − | − |  |  |  | 
OC[C@H]1O[C@H](OCC2O[C@@H](O)[C@H](O)[C@@H](O)[C@@H]2O)[C@H](O)[C@@H](O)[C@H]1O (stereo partly drawn) [D-melibiose] | + | + | + | + | + | + | + | + | positive | + | + |  |  | positive | 
N[C@H](CO)C(=O)O [D-serine] |  |  |  |  |  |  |  |  | positive |  |  | not suitable | can use |  | 
C[C@H](O)[C@@H](N)C(=O)O [D-threonine] |  |  |  |  |  |  |  |  |  |  |  |  | can use |  | 
OC[C@H]1O[C@H](O[C@H]2O[C@H](CO)[C@@H](O)[C@H](O)[C@H]2O)[C@H](O)[C@@H](O)[C@@H]1O [D-trehalose] | + | + | + | + | + | + | + | + | positive | + | + |  |  | positive | 
O=P(O)(O)O[C@H]1O[C@H](CO)[C@@H](O)[C@H](O)[C@H]1O [Glucose-1-phosphate] | + | + | + | + | + | + | + | + | positive | + | + |  |  |  | suitability as phosphorus source (growth, purple color) (E. coli MG1655 [6]): positive
NC[C@H]1O[C@H](O[C@H]2[C@H](O)[C@@H](O[C@H]3O[C@H](CO)[C@@H](O)[C@H](N)[C@H]3O)[C@H](N)C[C@@H]2N)[C@H](O)[C@@H](O)[C@@H]1O [Kanamycin, kanamycin] |  |  |  |  |  |  |  |  |  |  |  |  |  |  | MIC [14, 16]: 16 to 32 µg/mL (≈ 33 to 66 µM); MIC [15]: 8 to 16 µg/mL; MIC [15, 17]: 16 to 32 µg/mL (≈ 33 to 66 µM)
C[C@H](N)C(=O)O [L-alanine] |  |  |  |  |  |  |  |  | positive |  |  | not suitable | can use | positive | 
NC(=O)C[C@H](N)C(=O)O [L-asparagine] |  |  |  |  |  |  |  |  | positive |  |  | positive | can use | positive | 
N[C@@H](CC(=O)O)C(=O)O [L-aspartic acid] |  |  |  |  |  |  |  |  | positive |  |  | positive | can use |  | 
N[C@@H](CCC(=O)O)C(=O)O [L-glutamic acid] |  |  |  |  |  |  |  |  |  |  |  | positive | can use | positive | carbon source utilization, in words [7]: negative
NC(=O)CC[C@H](N)C(=O)O [L-glutamine] |  |  |  |  |  |  |  |  |  |  |  | positive | can use |  | 
N[C@@H](Cc1c[nH]cn1)C(=O)O [L-histidine] |  |  |  |  |  |  |  |  | negative |  |  | not suitable |  |  | growth stimulation by supplement (well color) (S. typhimurium hisF645): turned purple
O=C(O)[C@@H]1CCCN1 [L-proline] |  |  |  |  |  |  |  |  |  |  |  | positive | can use | positive | carbon source utilization, in words [5]: negative
N[C@@H](CO)C(=O)O [L-serine] |  |  |  |  |  |  |  |  | positive |  |  | not suitable | can use | positive | 
C[C@@H](O)[C@H](N)C(=O)O [L-threonine] |  |  |  |  |  |  |  |  |  |  |  | not suitable | can use |  | carbon source utilization, in words [5]: negative; carbon source utilization, in words [7]: negative
O=C(O)Cc1ccc(O)cc1 [P-hydroxy phenylacetic acid] | − | − | − | − | − | − | − | − | negative | − | − |  |  |  | 
CN(C)[C@@H]1C(O)=C(C(N)=O)C(=O)[C@@]2(O)C(O)=C3C(=O)c4c(O)cccc4[C@@](C)(O)[C@H]3C[C@@H]12 [Tetracycline, tetracycline] |  |  |  |  |  |  |  |  |  |  |  |  |  |  | MIC [14]: 0.25 to 1 µg/mL; MIC [14, 16]: 0.25 to 2 µg/mL (≈ 0.563 to 4.5 µM); MIC [15, 17]: 0.5 to 1 µg/mL (≈ 1.13 to 2.25 µM)
COC1OC(CO)C(O)C(O)C1O (stereo not drawn) [β-methyl glucoside] | + | + | + | + | + | + | + | + | positive | + | + |  |  | positive | 
